Assay results taken from patent EP0087751B1, “Water-soluble peptides from very poorly soluble amino acids” (PFRIMMER KABI GMBH & CO. KG, priority 1982, dated 1985).
Values after ≈ are worked out from the molar mass of the structure shown. Where a SMILES comes first, the peptide text is derived from it.

What was measured:
[1] = Solubility in water; assay type: physicochemical; details: for Löslichkeit: in water
[2] = Solubility in water

N[C@@H](Cc1ccc(O)cc1)C(=O)NCCCC[C@H](NC(=O)[C@@H](N)Cc1ccc(O)cc1)C(=O)O [N^2-Tyrosinyl-N^6-tyrosinyl-lysin, N^2-Tyrosinyl-N^6-L-tyrosinyl-L-lysin] (H-Tyr-Lys(Tyr)-OH)
Löslichkeit ([1]; temperature not stated): 622 g/L H20 | Faktor besser löslich in Wasser als das freie Tyrosin ([1]; ratio of water solubility of the tripeptide to that of free Tyrosin): 1,62 . 10^3

N^2-Cystinyl-N^6-L-cystinyl-L-lysin [N^2,N^6-Di-L-cystinyl, L-lysin]
Löslichkeit ([1]; 20°C): 125 g/L H20

NCCCC[C@H](N)C(=O)O [Lysin]
solubility [2]: 666 mg/mL (≈ 4560 mM)

N[C@@H](CSSC[C@H](N)C(=O)O)C(=O)O [Cystin]
solubility [2]: 0.09 mg/mL (≈ 0.375 mM)
